Test results as given in patent publication US20230364069A1, “METHOD FOR TREATING NON-ALCOHOLIC STEATOHEPATITIS THROUGH CO-ADMINISTRATION OF CURCUMIN DERIVATIVE AND TGF-B RECEPTOR INHIBITOR” (UNIVERSITY INDUSTRY FOUNDATION, YONSEI UNIVERSITY WONJU …, priority 2021, published 2023).

What was measured:
[1] = tested on: AML12 cells (mouse hepatocyte cell lines); experiment: Fibrosis markers by Western blotting after TGF-β induction, TGF-β receptor inhibitor; assay type: cell-based; conditions: 2 ng/ml TGF-β, 10 μM EW-7197, 24 hours, FIG. 2
Protocol: Cell experiments were performed by using AML12, […], and LX-2 cells, a human hepatic stellate cell.
AML12 cells were cultured in a culture medium made by adding 5 ml of insulin (ITS), 40 ng/ml of dexamethasone, 1% penicillin streptomycin (anti-anti), and 10% fetal bovine serum (FBS) to F-12 media (Corning Incorporated, USA, Arizona), a mixture of a DMEM medium and Ham's F-12 at a ratio of 50:50, which is used for culturing hepatocytes or prostate epithelial cells.
Fibrosis was induced in hepatocytes with TGF-β, a TGF-β receptor inhibitor was administered, and fibrosis was checked.
Specifically, 2 ng/ml of TGF-β was administered to the cells of Example 1-1, and administered or not administered with 10 μM EW-7197 (EW), and cultured for 24 hours. The control group (Con) was not treated with either TGF-β or the sample. […] A protein concentration was measured by BCA assay (Pierce Biotechnology Inc). […] Then, the membranes were washed, briefly incubated with Pico Enhanced Peroxidase Detection (EPD) Western reagent (ELPISBIOTECH. INC.) according to the manufacturer's procedure, and quantified by using an image analyzer (ImageQuant™ LAS 500, GE Healthcare Bio-Sciences AB, Uppsala, Sweden). β-actin was used as an internal control. Densitometry of protein intensity was quantified by using ImageJ (National Institutes of Health). […]

lung fibrosis model = conditions: bleomycin (BLM); previous studies; cited from earlier work
[2] = tested on: C57BL/6 mice in which steatohepatitis was induced with a methionine-choline deficient diet; experiment: Steatohepatitis animal model (MCD), curcumin 5-8 and low-concentration EW-7197 (5 mg/kg); assay type: in vivo, mouse; conditions: MCD-fed C57BL/6 mice, 6 weeks; EW-7197 5 mg/kg oral; curcumin 5-8 1 g per 1 kg diet
Protocol: 8-week-old male C57BL/6 mice weighing 20 to 25 g were purchased from Dae Han Bio Link Co., Ltd. (Chungbuk). […] Mice were fed with a normal diet (Research Diets, RD) and allowed to drink water freely. […] In order to confirm the physiological changes in case of co-administration of a curcumin derivative (Cur5-8) and a TGF-β receptor inhibitor (EW-7197), the liver weights and the concentrations of TG, TC, AST, ALT, and γ-GT in serum were measured. In addition, hydroxyprolin expression was checked as a fibrosis marker in the liver tissues. Specifically, the weights of the liver tissues harvested in Examples 2-1 and 2-2 were measured before storage. […] In order to measure blood glucose, triglyceride, cholesterol, and AST and ALT concentrations, ELISA kit of Asan Pharm. Co., Ltd. was purchased, and the measuring was performed. γ-GT in the liver was measured by using Mak089 of Sigma-Aldrich, and hydroxyproline was measured by using STA-675 ELISA kit of Cell Biolabs, Inc. In addition, the hydroxyprolin expression was checked in the liver tissues harvested in Examples 2-1 and 2-2. In order to check effects of inhibiting fat accumulation in liver tissues and fibrosis in liver tissues in case of co-administration of a curcumin derivative (Cur5-8) and a TGF-β receptor inhibitor (EW-7197), the liver tissues were stained. The liver tissues harvested in Examples 2-1 and 2-2 were fixed with 10% formaldehyde, the formaldehyde was washed out with running water for more than 12 hours, and then washing was performed with 60% ethanol at a one-hour interval, with 70% ethanol at a one-hour interval, and with 100% ethanol at a one-hour interval. Then, the transparency process in xylene was performed three times for one hour each, and the infiltration process in paraffin was performed twice for one hour each. Then, the paraffin block was cut to a thickness of about […] to obtain slices. […] In addition, H&E-stained liver slices were evaluated by using the NAFLD activity score (NAS) system. […]

[3] = tested on: mouse hepatocyte cell lines (AML12); experiment: TGF-β-induced fibrosis, co-administration of dehydrozingerone derivative and EW-7197 (epithelial-mesenchymal conversion, BODIPY, α-SMA staining); assay type: cell-based; conditions: 2 ng/ml TGF-β, 24 hours, 10 μM EW-7197, 1 μM Cur or Cur5-8, 10 μM DHZ, DHZ103 or DHZ176
Protocol: In addition, the curcumin derivative Cur5-8 of Example 1-4 and the TGF-β receptor inhibitor were co-administered, and then fibrosis and fat synthesis and degradation were checked again. […] The control group (Con) was not treated with either TGF-β or the sample. […] After washing with PBS 1×, stained cells were observed. In addition, in order to check the degree of fibrosis of hepatocytes, the cells cultured for 24 hours were fixed with 4% paraformaldehyde and stained by using α-SMA (Santa Cruz Biotechnology, Inc., Dallas, Texas, USA), an Alexafluor 488 (Cell Signaling Technology, Danvers, Massachusetts, USA) antibody, and DAPI (Abcam plc., Cambridge, MA, USA). The cells were mounted with a mounting solution (Fisher Scientific, Hampton, Rockingham, USA), the manufactured sample was photographed using a confocal microscope to obtain photographs of stained cells, and the degree of color development in the photographs of the stained cells was analyzed with the ImageJ program.

## Cc1cccc(-c2[nH]c(CNc3ccccc3F)nc2-c2ccc3ncnn3c2)n1 [EW-7197, N-(2-fluorophenyl)-5-(6-methyl-2-pyridinyl)-4-[1,2,4]triazolo[1,5-a]pyridin-6-yl-1H-imidazole-2-methanamine]
[1]
  protein expressions of α-SMA, Coll, p-SMAD2, and p-SMAD3 increased by TGF-β: inhibited
Lung fibrosis model
  tissue fibrosis (lung): suppressing tissue fibrosis
[2]
  ALT: 96.1 ± 17.96 IU/L
  AST: 159.6 ± 26.73 IU/L
  TG: 28.3 ± 4.84 mg/dL
[3]; FIG. 16
  epithelial-mesenchymal conversion caused by TGF-β: inhibited
[3]; FIGS. 16, 17
  fat accumulation / adipogenesis in cells (BODIPY staining): fat accumulation in cells was exhibited
[3]; FIGS. 16, 18
  liver fibrosis (α-SMA staining): inhibited
